Measurements as given in US9963448B2, “Bicyclic inhibitors of PAD4” (Padlock Therapeutics, Inc., priority 2015, dated 2018).
Structures can show the parent of a compound that is named as a salt. Where two headings read alike, the source gives them in different places.

Columns and labels:
[1] = target: hPAD4 (Homo sapiens, UniProt Q9UM07); experiment: hPAD4 RFMS (RapidFire mass spectrometry) PAD4 inhibition assay; format: biochemical; settings: hPAD4 enzyme, RFMS readout;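 for hPAD4 RFMS pIC50: grade E means pIC50 at most 4 and F means pIC50 4.0 to 5.0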
Procedure: (§1) Compounds of the present invention were assayed as inhibitors of PAD4 using the assay protocol described below.
(§2) Compound stock solutions were stored at RT. […] Final assay conditions were as follows:
(§3) Total incubation time: 65 mins at 37° C.
(§4) Stop solution: 40 μl 5% TCA in ACN
(§5) The compound numbers correspond to the compound numbers in Table 1. […] The term pIC50=−log(IC50). […] “NA” stands for “not assayed.”

[2] = target: mPAD4 (Mus musculus, UniProt Q9Z183); experiment: mPAD4 RFMS PAD4 inhibition assay; format: biochemical; settings: mPAD4, RFMS readout;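 for mPAD4 RFMS pIC50: grade E means pIC50 at most 4 and F means pIC50 4.0 to 5.0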
Procedure: as §1, §2, §3, §4, §5

[3] = pIC50=−log(IC50), read-out: hPAD4 RFMS pIC50 (converted)
[4] = pIC50=−log(IC50), read-out: mPAD4 RFMS pIC50 (converted)

mPAD4, sequence (Q9Z183 whole entry): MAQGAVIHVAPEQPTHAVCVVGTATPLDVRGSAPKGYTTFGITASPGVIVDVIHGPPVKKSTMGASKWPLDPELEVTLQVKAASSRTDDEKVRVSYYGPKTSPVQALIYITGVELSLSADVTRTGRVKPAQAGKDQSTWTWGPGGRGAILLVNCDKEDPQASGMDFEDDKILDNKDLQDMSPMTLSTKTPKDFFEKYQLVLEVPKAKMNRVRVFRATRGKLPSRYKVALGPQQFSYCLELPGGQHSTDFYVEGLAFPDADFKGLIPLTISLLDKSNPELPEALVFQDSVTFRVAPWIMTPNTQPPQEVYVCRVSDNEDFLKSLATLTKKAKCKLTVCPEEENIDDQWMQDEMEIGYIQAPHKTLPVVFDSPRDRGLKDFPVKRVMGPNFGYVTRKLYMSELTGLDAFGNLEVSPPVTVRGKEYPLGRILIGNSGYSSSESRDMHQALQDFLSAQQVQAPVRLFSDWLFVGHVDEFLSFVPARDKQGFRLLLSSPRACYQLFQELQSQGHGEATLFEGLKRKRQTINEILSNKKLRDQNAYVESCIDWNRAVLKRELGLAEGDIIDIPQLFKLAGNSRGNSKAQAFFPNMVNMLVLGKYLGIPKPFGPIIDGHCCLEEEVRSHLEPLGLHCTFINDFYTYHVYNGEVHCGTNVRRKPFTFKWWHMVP
hPAD4, sequence (Q9UM07 whole entry): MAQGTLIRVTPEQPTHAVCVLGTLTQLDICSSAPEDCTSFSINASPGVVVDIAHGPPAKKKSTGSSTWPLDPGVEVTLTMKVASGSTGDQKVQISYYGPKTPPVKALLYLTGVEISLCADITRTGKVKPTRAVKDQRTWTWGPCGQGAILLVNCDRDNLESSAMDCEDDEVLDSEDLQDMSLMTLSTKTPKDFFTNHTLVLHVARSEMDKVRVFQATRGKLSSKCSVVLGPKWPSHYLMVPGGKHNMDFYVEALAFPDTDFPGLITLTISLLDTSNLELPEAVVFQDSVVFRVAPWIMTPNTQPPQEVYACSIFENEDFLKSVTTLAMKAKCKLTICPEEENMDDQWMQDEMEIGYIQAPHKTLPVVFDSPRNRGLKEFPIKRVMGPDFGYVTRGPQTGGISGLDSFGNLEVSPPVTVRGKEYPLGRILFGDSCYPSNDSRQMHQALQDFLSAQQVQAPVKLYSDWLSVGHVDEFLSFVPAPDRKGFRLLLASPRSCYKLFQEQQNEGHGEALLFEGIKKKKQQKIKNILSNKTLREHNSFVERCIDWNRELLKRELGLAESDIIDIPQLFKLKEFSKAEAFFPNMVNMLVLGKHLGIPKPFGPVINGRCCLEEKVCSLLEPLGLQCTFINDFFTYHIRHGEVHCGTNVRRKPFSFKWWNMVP

| SMILES | IC50 [1, 3] [µM] | IC50 ([1]; read-out: hPAD4 RFMS IC50) [µM] | IC50 [2, 4] [µM] | IC50 ([2]; read-out: mPAD4 RFMS IC50) [µM] |
| --- | --- | --- | --- | --- |
| Cn1c(-c2cc3cccnc3n2CC2CC2)nc2cc(C(=O)N3CCCC4NCCC43)ccc21 (stereo not drawn) [Compound I-52] | 10 to 100 | > 10 | 10 to 100 | > 10 |
| COc1cc(C(=O)N2C[C@H]3CC[C@@H]2[C@@H]3N)cc2nc(-c3cc4cccnc4n3CC3CC3)n(C[C@H]3C[C@@H](OC)C3)c12 [Compound I-236] | < 1 | < 1 | < 1 | < 1 |
| CCn1c(-c2cc3cccnc3n2CC2CC2)nc2cc(C(=O)N3CC[C@H]4CCN[C@H]4C3)cc(OC)c21 [Compound I-22] | 10 to 100 | > 10 | 10 to 100 | > 10 |
| [2H]C([2H])([2H])OC1(C)CC(Cn2c(-c3cc4cccnc4n3CC3CC3)nc3cc(C(=O)N4C[C@H]5CC[C@@H]4[C@@H]5N)cc(OC)c32)C1 (stereo partly drawn) [Compound I-238, (1R,4R,7R)-2-{2-[1-(cyclopropylmethyl)-1H-pyrrolo[2,3-b]pyridin-2-yl]-7-methoxy-1-{[3-(^2H3)methoxy-3-methylcyclobutyl]methyl}-1H-1,3-benzodiazole-5-carbonyl}-2-azabicyclo[2.2.1]heptan-7-amine] | < 1 | < 1 | < 1 | < 1 |
| COc1cc(C(=O)N2C[C@H]3CC[C@@H]2[C@@H]3N)cc2nc(-c3cc4cc(F)cnc4n3CC3CC3)n(C)c12 [Compound I-222] | < 1 | < 1 | < 1 | < 1 |
| COc1cc(C(=O)N2C[C@H](N)CC[C@H]2C)cc2nc(-c3cc4cccnc4n3CC3CC3)n(C)c12 [Compound I-88] | 10 to 100 | > 10 | 1 to 10 | 5 to 10 |
| CCn1c(-c2nc3cc(C(=O)N4C[C@H]5CC[C@@H]4[C@@H]5N)cc(OC)c3n2CC2CCOCC2)cc2cccnc21 [Compound I-173] | < 1 | < 1 | 1 to 10 | 1 to 5 |
| COc1cc(C(=O)N2C[C@H]3CC[C@@H]2[C@@H]3N)cc2nc(-c3cc4cccnc4n3CC3CC3)n(CCSC)c12 [Compound I-235] | < 1 | < 1 | < 1 | < 1 |
| CCn1c(-c2nc3cc(C(=O)N4C[C@@H](N)CC[C@H]4C)cc(OC)c3n2C)cc2cccnc21 [Compound I-138] | < 1 | < 1 | < 1 | < 1 |
| COc1cc(C(=O)N2C[C@H]3CC[C@@H]2[C@@H]3N)cc2nc(-c3cc4cnc(C)nc4n3CC3CC3)n(C)c12 [Compound I-202, (1R,4R,7R)-2-{2-[7-(Cyclopropylmethyl)-2-methyl-7H-pyrrolo[2,3-d]pyrimidin-6-yl]-7-methoxy-1-methyl-1H-1,3-benzodiazole-5-carbonyl}-2-azabicyclo[2.2.1]heptan-7-amine] | < 1 | < 1 | 1 to 10 | 1 to 5 |
| COc1cc(C(=O)N2C[C@H]3COC[C@@]3(CN)C2)cc2nc(-c3cc4cccnc4n3CC3CC3)n(C)c12 [Compound I-125] | 10 to 100 | > 10 | 10 to 100 | > 10 |
| CCn1c(-c2nc3cc(C(=O)N4CCC[C@@H](N)C4)ccc3n2CCOC)cc2cccnc21 [Compound I-185] | 1 to 10 | 5 to 10 | 10 to 100 | > 10 |
| CCn1c(-c2nc3cc(C(=O)N4C[C@H]5CC[C@@H]4[C@@H]5N)ccc3n2CCOC)cc2cccnc21 [Compound I-186] | 1 to 10 | 1 to 5 | 10 to 100 | > 10 |
| Cn1c(-c2cc3cccnc3n2CC2CC2)nc2cc(C(=O)N3CCC[C@@H](N)C3)c(F)cc21 [Compound I-172] | 1 to 10 | 1 to 5 | 1 to 10 | 1 to 5 |
| COc1cc2c(cc1C(=O)N1CCC[C@@H](N)C1)nc(-c1cc3cccnc3n1CC1CC1)n2C [Compound I-68, (3R)-1-{2-[1-(cyclopropylmethyl)-1H-pyrrolo[2,3-b]pyridin-2-yl]-6-methoxy-1-methyl-1H-1,3-benzodiazole-5-carbonyl}piperidin-3-amine hydrochloride] | 1 to 10 | 5 to 10 | 10 to 100 | > 10 |
| COc1cc(C(=O)N2C[C@H](N)CC[C@@H]2CO)cc2nc(-c3cc4cccnc4n3CC3CC3)n(C)c12 (single isomer, unassigned) [Compound I-228] | 1 to 10 | 5 to 10 | 1 to 10 | 1 to 5 |
| COc1cc(C(=O)N2CC3(CCOC[C@@H]3N)C2)cc2nc(-c3cc4cccnc4n3CC3CC3)n(C)c12 [Compound I-95] | 10 to 100 | > 10 | 10 to 100 | > 10 |
| COc1cc(C(=O)N2CCC[C@@H](N)C2)cc2nc(-c3cc4cccnc4n3CC3CC3)n(C[C@H]3C[C@@](C)(OC)C3)c12 [Compound I-182] | < 1 | < 1 | < 1 | < 1 |
